Source: patent publication US3944549A, “Amino derivatives of 1,4-benzodioxan” (priority 1972, dated 1976)
Counter-ions that a name gives are not always drawn.

Legend:
[1] = system: vertigo; test: Vertigo in clinical tests; assay type: in vivo, man
[2] = Solubility in water; assay type: physicochemical
[3] = system: adrenergic receptors; test: α-blocking action: reversal of the hypertensive effect of adrenalin; assay type: in vivo, dogs
[4] = system: digestive ulcers; details: TOLDY et al. 1966; cited from earlier work

SMILES | vertigo [1] | solubility in water [2] | α-blocking activity ([3]; administered parenterally) | activity in the treatment of digestive ulcers [4] | α-blocking activity (counteracting the hypertensive effects of adrenalin) ([3]; orally to dogs)
OCCN1CCN(CC2COc3ccccc3O2)CC1 (centres unmarked) [Example 1, 1-[2-(1,4-Benzodioxanyl)-methyl]-4-(2-hydroxyethyl)-piperazine dihydrochloride] | caused vertigo in the majority of cases | soluble in water | α-blocking | – | –
OCCN1CCN(CC2COc3ccccc3O2)CC1 (centres unmarked) [free base, 1-[2-(1,4-benzodioxanyl)-methyl]-4-(2-hydroxyethyl)-piperazine, reference compound] | – | – | – | devoid of such activity | does not show any α-blocking activity
